The values that follow come from patent US20090163453A1, “Prevention and Treatment of Gastrointestinal and Bladder Disorders Associated with Chemotherapy or Radiation Therapy Using Active Vitamin D Compounds” (Novacea Inc., priority 2005, published 2009).

Data set [1] can be described thus: Solubility study of calcitriol in each formulation (light microscope). It counts as physicochemical. The note with it: each formulation of Table 3; heated to 50° C., cooled to room temperature; highest concentration tested. As to the method: To further assess the formulations of calcitriol, a solubility study was conducted to evaluate the amount of calcitriol soluble in each formulation. Calcitriol concentrations from 0.1 to 0.6 μg calcitriol/mg formulation were prepared by heating the formulations to 50° C. followed by addition of the appropriate mass of calcitriol. The formulations were then allowed to cool to room temperature and the presence of undissolved calcitriol was determined by a light microscope with and without polarizing light. For each formulation, calcitriol was soluble at the highest concentration tested, 0.6 μg calcitriol/mg formulation.

In data set [2] the test system is patients with androgen independent prostate cancer. The note with it: human, in vivo. As to the method: Two hundred fifty patients with androgen independent prostate cancer were enrolled in a randomized placebo controlled trial at 48 centers in the United States and Canada.
The same Taxotere® dose of 36 mg/m^2 body surface area was administered to the patients receiving Taxotere® and placebo or Taxotere® in combination with calcitriol.
Hospitalization for dehydration was more common in those patients receiving Taxotere® and placebo.

The next data set relates to patients. As to conditions: administered doses with cisplatin infusions; cited from earlier work.

Some results are limits rather than exact numbers.

Turning to `C=C1/C(=C\C=C2/CCC[C@]3(C)[C@@H]([C@H](C)CCCC(C)(C)O)CC[C@@H]23)C[C@@H](O)C[C@@H]1O` [Calcitriol, 1α,25-hydroxyvitamin D3], in data set [1], the “Calcitriol soluble in formulation” value is ≥ 0.6 μg calcitriol/mg formulation. Moreover, the “GI disorders versus Taxotere and placebo” value in data set [2] is given as “fewer GI disorders”.

For the molecule `NCCCNCCSP(=O)(O)O` [WR 2721, S-2-(3-aminopropylamino)ethylphosphorothioic acid], in the data set on patients, the “Emesis, percent of patients” value is on record as 48 % of patients and the “Hypotension, percent of patients” value is given as 7 % of patients.
